Reference: PubChem BioAssay AID1963871 (Molecular Pharmacology Branch, DTP, NCI, 2024)

Tested on: KRAS-mutant PDC multicell tumor spheroid viability
Assay: Anticancer human tumor 521955-158-R2-J5-PDC patient-derived pancreatic carcinoma cell line growth inhibition [KRAS2]
Details: for IC50: curve of first compound; for viability, T/C: stronger effect = lower value
Method in brief: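 KRAS-mutant tumor cells were grown as spheroids with HUVEC endothelial cells and human MSCs as stroma. Targeted agents were tested alone and with KRAS pathway inhibitors. Doses started at or near clinical Cmax, or 10 microM, descending half-log.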

[1] = second compound 0.1 µM, first compound 0.0316 µM
[2] = second compound 0.1 µM, first compound 0.1 µM
[3] = second compound 0.1 µM, first compound 0.316 µM
[4] = second compound 0.1 µM, first compound 1 µM
[5] = second compound 0.1 µM, first compound 3.16 µM
[6] = second compound 0.316 µM, first compound 0.0316 µM
[7] = second compound 0.316 µM, first compound 0.1 µM
[8] = second compound 0.316 µM, first compound 0.316 µM
[9] = second compound 0.316 µM, first compound 1 µM
[10] = second compound 0.316 µM, first compound 3.16 µM
[11] = second compound 1 µM, first compound 0.0316 µM
[12] = second compound 1 µM, first compound 0.1 µM
[13] = second compound 1 µM, first compound 0.316 µM
[14] = second compound 1 µM, first compound 1 µM
[15] = second compound 1 µM, first compound 3.16 µM
[16] = second compound 3.16 µM, first compound 0.0316 µM
[17] = second compound 3.16 µM, first compound 0.1 µM
[18] = second compound 3.16 µM, first compound 0.316 µM
[19] = second compound 3.16 µM, first compound 1 µM
[20] = second compound 3.16 µM, first compound 3.16 µM
[21] = second compound 0.1 µM, first compound 10 µM
[22] = second compound 0.316 µM, first compound 10 µM
[23] = second compound 1 µM, first compound 10 µM
[24] = second compound 3.16 µM, first compound 10 µM
[25] = second compound 10 µM, first compound 0.0316 µM
[26] = second compound 10 µM, first compound 0.1 µM
[27] = second compound 10 µM, first compound 0.316 µM
[28] = second compound 10 µM, first compound 1 µM
[29] = second compound 10 µM, first compound 3.16 µM
[30] = second compound 10 µM, first compound 10 µM
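Also: viability read after seven days of drug exposure.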

| SMILES | IC50 (second compound 0.1 µM) [µM] | IC50 (second compound 0.316 µM) [µM] | IC50 (second compound 1 µM) [µM] | IC50 (second compound 3.16 µM) [µM] | viability, T/C [1] [%] | viability, T/C [2] [%] | viability, T/C [3] [%] | viability, T/C [4] [%] | viability, T/C [5] [%] | viability, T/C [6] [%] | viability, T/C [7] [%] | viability, T/C [8] [%] | viability, T/C [9] [%] | viability, T/C [10] [%] | viability, T/C [11] [%] | viability, T/C [12] [%] | viability, T/C [13] [%] | viability, T/C [14] [%] | viability, T/C [15] [%] | viability, T/C [16] [%] | other results |
| --- | --- | --- | --- | --- | --- | --- | --- | --- | --- | --- | --- | --- | --- | --- | --- | --- | --- | --- | --- | --- | --- |
| CC(=O)OC12COC1CC(O)C1(C)C(=O)C(O)C3=C(C)C(OC(=O)C(O)C(NC(=O)OC(C)(C)C)c4ccccc4)CC(O)(C(OC(=O)c4ccccc4)C21)C3(C)C (stereo not given) + C=CC(=O)N1CCN(c2nc(OCC3CCCN3C)nc3c2CCN(c2cccc4cccc(C)c24)C3)CC1CC#N | < 0.01 | < 0.01 | < 0.01 | < 0.01 | 16.3 | 12.6 | 12.7 | 15.1 | 18.3 | 10 | 9.97 | 11.8 | 17.3 | 19.8 | 13.2 | 10 | 9.11 | 11.5 | 14.3 | 15.5 | IC50 (second compound 0.0316 µM): < 0.01 µM; viability, T/C (second compound 0.0316 µM, first compound 0.01 µM): 21.3%; viability, T/C (second compound 0.0316 µM, first compound 0.0316 µM): 15.8%; viability, T/C (second compound 0.0316 µM, first compound 0.1 µM): 12.7%; viability, T/C (second compound 0.0316 µM, first compound 0.316 µM): 15.2%; viability, T/C (second compound 0.0316 µM, first compound 1 µM): 15.4%; viability, T/C (second compound 0.0316 µM, first compound 3.16 µM): 20.6%; viability, T/C (second compound 0.1 µM, first compound 0.01 µM): 19.4%; viability, T/C (second compound 0.316 µM, first compound 0.01 µM): 19.3%; viability, T/C (second compound 1 µM, first compound 0.01 µM): 18.9%; viability, T/C (second compound 3.16 µM, first compound 0.01 µM): 22.1%; viability, T/C [17]: 15.3%; viability, T/C [18]: 15.8%; viability, T/C [19]: 16.9%; viability, T/C [20]: 21.8% |
| O=C(c1cc(Cc2n[nH]c(=O)c3ccccc23)ccc1F)N1CCN(C(=O)C2CC2)CC1 + CNCc1ccccc1-c1csc(C(C)Nc2nc(C)nc3cc(OC)c(OC)cc23)c1 | > 10 | > 10 | > 10 | < 0.0316 | 93.9 | 106 | 91 | 88.3 | 72.7 | 86.7 | 100 | 94.5 | 88.8 | 72.1 | 92.3 | 98.1 | 99.6 | 94.5 | 70.7 | 0.34 | IC50 (second compound 10 µM): < 0.0316 µM; viability, T/C [21]: 55.7%; viability, T/C [22]: 54.3%; viability, T/C [23]: 51.9%; viability, T/C [17]: 0.17%; viability, T/C [18]: 0.17%; viability, T/C [19]: 0.65%; viability, T/C [20]: 0.18%; viability, T/C [24]: 0.2%; viability, T/C [25]: 0.16%; viability, T/C [26]: 0.14%; viability, T/C [27]: 0.16%; viability, T/C [28]: 0.16%; viability, T/C [29]: 0.18%; viability, T/C [30]: 0.23% |
| CC1OCC2(CCN(c3cnc(Sc4ccnc(N)c4Cl)c(N)n3)CC2)C1N (stereo not given) + COc1cc2nc(C)nc(NC(C)c3cc(N)cc(C(F)(F)F)c3)c2cc1OC1CCOC1 | > 10 | > 10 | > 10 | > 10 | 87.6 | 83.6 | 77.6 | 75.9 | 72.5 | 82.3 | 97.1 | 85.9 | 71.9 | 64.2 | 105 | 92.1 | 82.4 | 74.4 | 72.1 | 111 | IC50 (second compound 10 µM): 4.27 µM; viability, T/C [21]: 56.6%; viability, T/C [22]: 55.4%; viability, T/C [23]: 62.5%; viability, T/C [17]: 102%; viability, T/C [18]: 88%; viability, T/C [19]: 83.8%; viability, T/C [20]: 80.3%; viability, T/C [24]: 84.6%; viability, T/C [25]: 90.4%; viability, T/C [26]: 84.7%; viability, T/C [27]: 76.9%; viability, T/C [28]: 65.9%; viability, T/C [29]: 58.5%; viability, T/C [30]: 35% |
